# Experimental data: PubChem BioAssay AID1322 (NMMLSC, 2008)
# Active and inactive are the calls of the source. No rule for the calls is given here.
# Target: Bcl-2-like protein 1 (Homo sapiens) (UniProt Q07817)
# Test: Bim-Bcl-XL interaction inhibitors, potency, dose response, biochemical, multiplexed, bead flow cytometry, human Bcl-XL (AID 1322); as to inhibition: test concentration not given here
# Details: Bead-based flow cytometry, Bim peptide-Bcl-XL binding, MCF
# Chain of Bcl-2-like protein 1 (Homo sapiens) (Q07817 whole entry, looked up): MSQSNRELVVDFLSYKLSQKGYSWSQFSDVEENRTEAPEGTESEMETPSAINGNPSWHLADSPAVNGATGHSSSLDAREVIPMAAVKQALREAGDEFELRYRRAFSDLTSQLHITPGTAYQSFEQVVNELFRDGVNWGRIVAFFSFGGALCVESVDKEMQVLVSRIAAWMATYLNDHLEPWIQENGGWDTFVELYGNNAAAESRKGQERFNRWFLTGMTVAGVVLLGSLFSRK
row,outcome,SMILES
1,inactive,O=C(C[n+]1ccc(-c2nnc3n2CCC3)cc1)c1ccc(Cl)cc1
2,inactive,CCOc1ccccc1CNc1ccc(O)cc1
3,inactive,Fc1ccc(C2=Nc3cccc4cccc(c34)N2)cc1
4,inactive,CCOC(=O)c1cc2c(=O)n3ccccc3nc2n(Cc2ccco2)c1=NC(=O)c1ccccc1OC
5,inactive,COc1c(C)cc(Br)cc1C(=O)Nc1ccc(S(N)(=O)=O)cc1
6,inactive,CN(Cc1cccs1)C(=O)CCc1c[nH]c2ccccc12
7,inactive,CNCc1ccccc1Sc1cc(O)ccc1O
8,inactive,Cc1ccc(C(NC(=O)C(C)C)c2cc([N+](=O)[O-])c3cccnc3c2O)cc1 (stereo not given)
9,inactive,CC1CC2=C(NC(=S)NC2c2cccc(F)c2)/C(=C/c2cccc(F)c2)C1 (stereo not given)
10,inactive,O=C1c2ccccc2C(=O)N1c1cccc2cccnc12

# The remaining lines, values behind:
row,SMILES,outcome
1,Cn1cc(CN2C[C@]3(C)C[C@H]2CC(C)(C)C3)c(-c2ccc3c(c2)OCCO3)n1,inactive
2,COC(=O)c1cccc(-n2c(C)cc(C=O)c2C)c1,inactive
3,CCCCc1ccc(NC(=S)NCc2ccc(OC)cc2)cc1,inactive
4,CNC(CC(=O)c1ccc([N+](=O)[O-])cc1)C(Cl)(Cl)Cl (stereo not given),inactive
5,CCN(CC)CCN(C(=O)c1ccc(N2C(=O)CCC2=O)cc1)c1nc2cc3c(cc2s1)OCCO3,inactive
6,CCC(=O)OCCNc1cc(Sc2nccn2C)c2nonc2c1[N+](=O)[O-],inactive
7,CCCCC(C(=O)OCC)C(N)Cc1ccc(F)cc1 (stereo not given),inactive
8,CCOc1ncccc1C(=O)OC(C)C(=O)Nc1ccc(CC)cc1 (stereo not given),inactive
9,COc1ccc(OC)c(Nc2ccc(C(=O)O)cc2[N+](=O)[O-])c1,inactive
10,CCOC(=O)C1(Cc2cccc(OC)c2)CCN(Cc2cccc(OC)c2OC)CC1,inactive
11,Cc1cc(C)n(CC(=O)N/N=C/c2cccc([N+](=O)[O-])c2)n1,inactive

# Same assay, conditions: Bead-based flow cytometry, Bim peptide-Bcl-XL binding, MCF
row,inhibition,SMILES
1,inactive,CCOC(=O)C1=C(Cc2ccc(OC)cc2)C(=O)c2ccccc2C1=O
2,inactive,CNc1nc2ccccc2n1/N=C/c1cccc(OC)c1OC
3,inactive,CCc1cccc(NC(=O)COc2ccccc2)c1
4,inactive,Fc1ccccc1-n1cc(-c2ccccc2)[nH]c1=S
5,inactive,O=C(NC1=C(Nc2ccc(Cl)cc2)C(=O)c2ccccc2C1=O)c1ccccc1
6,inactive,CC(C)c1ccc(/C=N/NC(=O)c2ccccc2Cl)cc1
7,inactive,Cn1c(=O)c2c(nc(NCCO)n2CCc2ccccc2)n(C)c1=O
8,inactive,COc1ccc(NC(=O)c2c(F)cccc2F)cc1S(=O)(=O)Nc1ccc(Br)cc1
9,inactive,Cc1cc(Cl)ccc1N=c1ssnc1Cl
10,inactive,O=C(c1ccc(CNS(=O)(=O)c2ccc(Br)cc2)cc1)N1CCCC1
11,inactive,Cc1noc(C)c1COc1ccc(C(=O)Nc2cccnc2)cc1
12,inactive,C/C(=N\NC(=O)Cc1cccn1C)c1ccc2ccccc2c1
13,inactive,CN1/C(=C\C(=O)Nc2ccc(Cl)cc2)C(C)(C)c2ccccc21
14,inactive,COc1cccc(N2CC(C(=O)Nc3nnc(SCC(=O)c4ccccc4)s3)CC2=O)c1 (stereo not given)
15,inactive,O=C(NCCCO)Nc1ccc2nc(-c3ccco3)c(-c3ccco3)nc2c1
16,inactive,Cc1ccc(/C=C2\CCCC3=C2NC(=S)NC3c2ccc(C)cc2)cc1 (stereo not given)
17,inactive,Cc1ccc(CNc2ccc3c(c2)OCO3)c(C)c1
18,inactive,Cc1ccc(C2=N/C(=C/c3cccs3)C(=O)N2Nc2ccccc2)cc1
19,inactive,O=C(/C=C/c1c(F)cccc1Cl)Nc1ccncc1
20,inactive,CCN(CC)c1nc(N)nc(N(c2ccccc2)c2ccccc2)n1
21,inactive,Fc1ccccc1/C=C1\CCCC2=C1NC(=S)NC2c1ccccc1F (stereo not given)
22,inactive,O=C(CSc1nnc(-c2cccs2)n1Cc1ccco1)c1ccc2c(c1)OCO2
23,inactive,O=C(NC1=C(Nc2ccc(F)cc2)C(=O)c2ccccc2C1=O)c1ccc(Cl)cc1
24,inactive,CSc1nnc2ccc(-c3cccs3)nn12

row,inhibition,SMILES
1,inactive,CCOC(=O)C1=C(CP(=O)(c2ccccc2)c2ccccc2)NC(=O)NC1c1ccc(OC)cc1 (stereo not given)
2,inactive,COc1ccc(N2CC(C(=O)Nc3nnc(SCC(=O)c4ccccc4)s3)CC2=O)cc1 (stereo not given)
3,inactive,Cc1ccc(Nc2nc(-c3c(C)nc4ncccn34)cs2)cc1
4,inactive,COc1ccc(NC(=O)/C(C#N)=C/c2c(C)nn(-c3ccc(F)cc3)c2Cl)cc1Cl
5,inactive,Cc1nc2scc(-c3ccccc3)c2c(=O)n1N=C1C=CC(=O)C=C1
6,inactive,Cc1ccnc(NS(=O)(=O)c2ccc(NC(=O)c3c(-c4ccccc4Cl)noc3C)cc2)n1
7,inactive,CCN(CC)c1ccc(NC(=O)c2ccc(=O)[nH]c2)cc1S(=O)(=O)Nc1ccccc1OC
8,inactive,O=C(CCl)Nc1cccc2ncccc12
9,inactive,COc1cccc2c(SCC(=O)N/N=C/c3ccccc3)cc(C)nc12
10,inactive,Cc1ccc(NC2=C(Cl)C(=O)c3ccccc3C2=O)cc1
11,inactive,Cc1onc(-c2ccccc2)c1C(=O)Nc1nnc(COc2ccc(Cl)cc2)s1
12,inactive,N=C1C(c2nc3ccccc3s2)=C(O)CN1Cc1ccccc1
13,inactive,COc1ccc(CN(C)CC(=O)NC(C)c2ccccc2)c(OC)c1 (stereo not given)
14,inactive,CC1(C)Cc2c(ccc3ccccc23)/C(=C/C(=O)N2CCCCC2)N1
15,inactive,Cc1cccc(-c2nnc3n2N=C(c2ccccc2)CS3)c1
16,inactive,O=C(CSc1nnc(-c2ccco2)n1Cc1ccccc1)c1ccccc1
17,inactive,COc1cc(/C=C2\SC(=S)NC2=O)ccc1OS(=O)(=O)c1ccccc1
18,inactive,O=c1[nH]c2ccc(N=Cc3c(O)ccc4cc(Br)ccc34)cc2[nH]1
19,inactive,O=C1C=C(Nc2ccccc2)C(=O)c2ccccc21
20,inactive,Cc1ccc(C)n1-c1cccc(C(=O)O)c1
21,inactive,O=S1(=O)N=C(N(CCO)/N=C/c2ccccc2)c2ccccc21
22,inactive,COc1cc(C2Nc3cccc4cccc(c34)N2)ccc1OC(C)=O
23,inactive,CCn1c(C)c(/C=N/Nc2nc3ccccc3s2)c2ccccc21
24,inactive,Cc1ccc(Nc2nc(-c3ccccc3)c(CC(=O)O)s2)cc1

# Further lines, the compound ahead of its results:
row,SMILES,inhibition
1,O=C(NCCN1CCOCC1)c1cc(Cl)ccc1[N+](=O)[O-],inactive
2,Cc1onc(-c2ccccc2Cl)c1C(=O)Nc1nn[nH]n1,inactive
3,CCOc1cc(/C=N/NC(N)=O)ccc1OCC(=O)Nc1ccc(C)c(C)c1,inactive
4,CC1(C(=O)N(CC(=O)NC2CCCC2)Cc2ccco2)CC(=O)N=C2C=CC=CN21 (stereo not given),inactive
5,CCNC(=O)N1c2ccc(OCC)cc2C(C)=CC1(C)C,inactive
6,Cc1[nH]n(C(N)=S)c(=O)c1N=Nc1ccc(S(=O)(=O)N2CCCCCC2)cc1,inactive
7,Cc1ccc(/C=C/C(=O)Nc2ccc([N+](=O)[O-])c(NC(=O)/C=C/c3ccc(C)o3)c2)o1,inactive
8,Cc1cc(C)c2nc3nc(C)cc(C)c3c(N)c2c1,inactive
9,CCC(CC)C(=O)Nc1cccc(SC)c1,inactive
10,CCCOc1ccc(-c2c(C(=O)N/N=C/c3ccc(OC)cc3)nnn2-c2nonc2N)cc1,inactive
11,NC(=O)c1c(NC(=O)C2CCCO2)sc2c1CCCCC2 (stereo not given),inactive
12,O=[N+]([O-])c1cccc(S(=O)(=O)NCC2CCCO2)c1 (stereo not given),inactive
13,COCCNC(=O)CN1CCC(NC(=O)Nc2ccccc2)CC1,inactive
14,CNC(=S)N/N=C/C1=CCC2CC1C2(C)C (stereo not given),inactive
15,COc1ccc2nc(C)cc(SCC(=O)N/N=C/c3ccc(O)cc3O)c2c1,inactive
16,C=CCn1c(C)cc(-c2csc(NC)n2)c1C,inactive
17,Cc1cnnn1-c1ccc(C(=O)CCl)cc1,inactive
18,COc1cccc(NC(=O)CSc2nncn2N)c1,inactive

row,SMILES,inhibition
1,CCN1CCN(c2cc(C)c3cc(NC(=S)N4CCCCC4)ccc3n2)CC1,inactive
2,CCCn1c(N2CCN(C)CC2)nc2c1c(=O)[nH]c(=O)n2C,inactive
3,CN(C)C(=O)N1CCC(C(=O)NC2CCCCCCC2)CC1,inactive
4,CCOC(=O)CCCNC(=O)c1cncc(O)c1,inactive
5,Cc1cc(C)cc(NS(=O)(=O)c2ccc3c(c2)c(=O)n(C)c(=O)n3C)c1,inactive
6,COC(=O)CSc1ncnc2c1sc1nc(-c3ccco3)c3c(c12)CC(C)(C)OC3,inactive
7,CCNC(=S)Nc1ccc(OCC)cc1,inactive
8,COc1ccc(NC(=O)C2=C(C)NC(=O)NC2c2cccc(OC)c2OC)c(OC)c1 (stereo not given),inactive
9,COCCn1nnnc1CN(Cc1ccco1)Cc1cc2cc3c(cc2[nH]c1=O)OCO3,inactive
10,CN(Cc1ccccc1)C(=O)c1[nH]cnc1C(=O)N[C@@H](CCCCNC(=O)OC(C)(C)C)C(=O)OC(C)(C)C,inactive
11,C#CCOCCOCCOCCNc1nc(N2CCN(C(=O)[C@H](CCCCN)n3cc(CCCC)nn3)CC2)nc(N2CCN(C(=O)[C@H](Cc3ccc(O)cc3)n3cc(CCO)nn3)CC2)n1,inactive
12,COc1cc(NC(=S)NC(=O)c2cc(C)cc(C)c2)ccc1NC(=O)c1cccs1,inactive
13,CC(C)n1nnnc1SCC(=O)N1CCN(C(=O)c2ccco2)CC1,inactive
14,COc1ccc(Cc2c(O)nc(SC)n(C(C)=O)c2=O)cc1,inactive
15,OC(COc1ccc2cc(Br)ccc2c1)CN1CCOCC1 (stereo not given),inactive
16,Cc1ccc(NS(=O)(=O)c2cc(NC(=O)c3ccc4c(c3)NC(=O)CS4)ccc2C)c(C)c1,inactive
17,Cc1ccc(C)c(Oc2ncnc(N)c2[N+](=O)[O-])c1,inactive
18,O=C(Nc1n[nH]c(C(F)(F)F)n1)C1CC1,inactive
